Results taken from US20120010075A1 (priority 2009, published 2012).
Read-outs that look alike come from different tables or passages of the source.

Assays:
[1] = test system: Leptosphaeria nodorum (LEPTNO); experiment: In vitro fungitoxicity of hydrazones with and without copper towards Leptosphaeria nodorum (Example 26); type: cell-based; conditions: 72 h at 25° C.; for inhibition of growth at 0.05 µg/mL: Parastagonospora nodorum, 72 h, read-out: LEPTNO % Inhn. Minus Copper Observed
Phytophthora infestans = type: in vivo, Phytophthora infestans on tomato; conditions: applied 24 h before inoculation, assessed 7 days after inoculation
[2] = copper-minus medium, test compound Concn. 0.05 μg/mL
[3] = copper-plus medium (CuCl2 10 μM), test compound Concn. 0.05 μg/mL
[4] = hydrazone 50 ppm with 50 μM CuCl2.2H2O, tomato late blight
[5] = compound 0.05 μg/mL, copper-minus medium
[6] = compound 0.05 μg/mL, copper-plus medium (CuCl2.2H2O)
[7] = hydrazone 50 ppm + 50 μM CuCl2.2H2O, tomato

Row | SMILES | melting point | inhibition of growth at 0.05 µg/mL [1, 2] | LEPTNO % Inhn. Plus Copper Observed [1, 3] | TLB % Control (Phytophthora infestans; [4]) | LEPTNO % Inhn. Minus Copper Observed [1, 5] | LEPTNO % Inhn. Plus Copper Observed [1, 6] | TLB % Control (Phytophthora infestans; [7]) | inhibition of growth at 0.05 µg/mL [1, 5]
1 | C/C(=N\NC(=O)c1cccc(Cl)c1O)c1cc(Cl)cc(Cl)c1O [Example 481] | 260 to 262 °C | 10.3% | 97.8% | 76.0% | – | – | – | –
2 | O=C(N/N=C/c1cccc(Cl)c1O)c1ccc(F)cc1 [Example 426] | 194 to 198 °C | 34.8% | 97.3% | 98.0% | – | – | – | –
3 | CC/C(=N\NC(=O)c1ccc(C)cc1C)c1ccccc1O [Example 34] | 175 to 176 °C | – | – | – | 0.0% | 97.8% | 68.4% | –
4 | COc1ccc(C(=O)N/N=C(\C)c2ccc(OC)cc2O)cc1 [Example 482] | 226 to 227 °C | 0% | 96.4% | 66.0% | – | – | – | –
5 | Cc1ccc(C(=O)N/N=C/c2cccc(Cl)c2O)c(O)c1 [Example 433] | 258 to 266 °C | 10.8% | 97.8% | 100.0% | – | – | – | –
6 | COc1ccc(/C(C)=N/NC(=O)c2ccc(Br)cc2)c(O)c1 [Example 483] | 239 to 241 °C | 0% | 97.9% | 63.0% | – | – | – | –
7 | COc1cc(Br)cc(/C=N/NC(=O)c2cc(C)cc(C)c2)c1O [Example 209] | 189 to 193 °C | – | – | – | – | 95.9% | 67.3% | 17.6%
8 | O=C(N/N=C/c1cc(C(F)(F)F)cc(C(F)(F)F)c1O)c1ccccc1 [Example 295] | 232 to 234 °C | – | – | – | – | 98.0% | 89.8% | 5.8%
9 | O=C(N/N=C/c1ccc(Cl)c(Cl)c1O)c1ccccc1C(F)(F)F [Example 363] | 209 to 213 °C | 4.3% | 94.7% | 92.0% | – | – | – | –
10 | C/C(=N\NC(=O)c1ccc(C)cc1O)c1cc(Cl)cc(Cl)c1O [Example 491] | 320 to 323 °C | 25% | 97.5% | 75.0% | – | – | – | –
11 | COc1cc(O)c(/C(C)=N/NC(=O)c2cccc(Cl)c2)c(OC)c1 [Example 567] | 206 to 215 °C | 2.5% | 42.3% | 14.0% | – | – | – | –
12 | C/C(=N\NC(=O)c1ccccc1Cl)c1cc(Cl)ccc1O [Example 508] | 210 to 217 °C | 9.4% | 97.1% | 92.0% | – | – | – | –
13 | O=C(N/N=C/c1cc(Cl)cc(Cl)c1O)c1ccc(C(F)(F)F)cc1 [Example 81] | 238 to 240 °C | – | – | – | – | 96.1% | 97.0% | 2.4%
14 | COc1ccc(O)c(C(=O)N/N=C(\C)c2cc(Cl)cc(Cl)c2O)c1 [Example 478] | 327 to 331 °C | 0.7% | 94.7% | 65.0% | – | – | – | –
15 | C/C(=N\NC(=O)c1ccc(Cl)cc1)c1cc(C(F)(F)F)ccc1O [Example 533] | 263 to 265 °C | 6.2% | 97.0% | 34.0% | – | – | – | –
16 | O=C(N/N=C/c1cc(C(F)(F)F)ccc1O)c1ccc(F)cc1 [Example 438] | 229 to 231 °C | 0% | 94.2% | 98.0% | – | – | – | –
17 | C/C(=N\NC(=O)c1cccc(C)c1)c1ccc(Cl)cc1O [Example 253] | 210 to 211 °C | – | – | – | – | 98.0% | 14.0% | 4.9%

Row | SMILES | melting point | inhibition of growth at 0.05 µg/mL [1, 2] | LEPTNO % Inhn. Plus Copper Observed [1, 3] | TLB % Control (Phytophthora infestans; [4]) | LEPTNO % Inhn. Minus Copper Observed [1, 5] | LEPTNO % Inhn. Plus Copper Observed [1, 6] | TLB % Control (Phytophthora infestans; [7]) | inhibition of growth at 0.05 µg/mL [1, 5]
18 | O=C(N/N=C/c1cc(Cl)cc(C(F)(F)F)c1O)c1ccc(F)cc1 [Example 379] | 227 to 228 °C | 26.7% | 98.2% | 100.0% | – | – | – | –
19 | O=C(N/N=C/c1ccc(Cl)cc1O)c1ccc(F)cc1 [Example 390] | 226 to 228 °C | 4.2% | 97.5% | 95.0% | – | – | – | –
20 | Cc1cccc(C(=O)N/N=C/c2c(C(F)(F)F)ccc(Cl)c2O)c1 [Example 447] | 219 to 221 °C | 20% | 96.6% | 100.0% | – | – | – | –
21 | Cc1cccc(C(=O)N/N=C/c2c(Cl)ccc(Cl)c2O)c1 [Example 365] | 214 to 216 °C | 13.8% | 95.6% | 95.0% | – | – | – | –
22 | C/C(=N\NC(=O)c1c(C)cccc1O)c1cc(Cl)cc(Cl)c1O [Example 479] | 245 °C | 0% | 97.5% | 97.0% | – | – | – | –
23 | O=C(N/N=C/c1cc(Cl)c(Cl)cc1O)c1ccccc1 [Example 240] | 238 to 241 °C | – | – | – | – | 98.1% | 74.6% | 0%
24 | C/C(=N\NC(=O)c1ccc(C)cc1)c1ccc(Cl)cc1O [Example 254] | 254 to 256 °C | – | – | – | – | 98.1% | 0.0% | 8.3%
25 | COc1ccc(O)c(/C(C)=N/NC(=O)c2ccccc2)c1 [Example 261] | 150 to 152 °C | – | – | – | – | 97.9% | 10.0% | 2.7%
26 | O=C(N/N=C/c1c(O)cccc1Cl)c1cccc([N+](=O)[O-])c1 [Example 404] | 269 to 270 °C | 0% | 94.9% | 97.0% | – | – | – | –
27 | COc1ccc(/C(C)=N/NC(=O)c2ccccc2)c(O)c1OC [Example 551] | 154 to 155 °C | 1.7% | 96.0% | 90.0% | – | – | – | –
28 | C/C(=N\NC(=O)c1ccccc1Br)c1cccc(Cl)c1O [Example 502] | 178 to 183 °C | 4.2% | 97.2% | 85.0% | – | – | – | –
29 | C/C(=N\NC(=O)c1ccccc1Cl)c1cc(C(F)(F)F)ccc1O [Example 531] | 189 to 191 °C | 0% | 97.3% | 80.0% | – | – | – | –
30 | C/C(=N\NC(=O)c1ccccc1C)c1cc(C(F)(F)F)ccc1O [Example 528] | 200 to 203 °C | 8.7% | 97.7% | 73.0% | – | – | – | –
31 | O=C(N/N=C/c1cc(C(F)(F)F)ccc1O)c1cccc([N+](=O)[O-])c1 [Example 441] | 218 to 220 °C | 0% | 100.0% | 96.0% | – | – | – | –
32 | C/C(=N\NC(=O)c1cccc(C)c1)c1cc(C)ccc1O [Example 313] | 182 to 184 °C | 8.5% | 98.5% | 28.0% | – | – | – | –
33 | O=C(N/N=C/c1cccc(C(F)(F)F)c1O)c1cccc(Cl)c1 [Example 347] | 185 to 187 °C | 13.8% | 98.4% | 97.0% | – | – | – | –
